In PubChem BioAssay (NCI):
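96-well plates; 48 h exposure; 5 concentrations. Endpoints by linear interpolation between flanking doses. Not reached: highest tested concentration assigned. Here, GI50 denotes the concentration required for 50% inhibition of growth. At the TGI there is no net growth.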

Key:
Assay in all cases: DTP human tumour cell line panel, 48 h
MDA-MB-435 = test system: MDA-MB-435
NCI-H226 lung = test system: NCI-H226 lung
T-47D breast = test system: T-47D breast
HCC-2998 colon = test system: HCC-2998 colon
NCI-H522 lung = test system: NCI-H522 lung
786-0 renal = test system: 786-0 renal
M14 melanoma = test system: M14 melanoma
PC-3 prostate = test system: PC-3 prostate
NCI/ADR-RES ovarian = test system: NCI/ADR-RES ovarian
SF-295 CNS = test system: SF-295 CNS
HS 578T breast = test system: HS 578T breast

Compound	TGI (MDA-MB-435)	TGI (NCI-H226 lung)	TGI (T-47D breast)	TGI (HCC-2998 colon)	TGI (NCI-H522 lung)	TGI (786-0 renal)	TGI (M14 melanoma)	TGI (PC-3 prostate)	TGI (NCI/ADR-RES ovarian)	TGI (SF-295 CNS)	TGI (HS 578T breast)	GI50 (NCI-H226 lung)	GI50 (SF-295 CNS)
CNCC(SC)c1ccc(O)c(O)c1 (stereo not drawn)	> 100 µM	> 100 µM	67 µM	31.2 µM	34.5 µM	39.1 µM	> 100 µM	> 100 µM	> 100 µM	> 100 µM	> 100 µM		
CC12CC(c3ccccc3O1)C(C(=O)Nc1nccs1)C(=O)N2 (stereo not drawn)	> 100 µM	> 100 µM		> 100 µM	> 100 µM	> 100 µM	> 100 µM	> 100 µM	> 100 µM	> 100 µM	> 100 µM		
CN1COCN=C1NC#N		> 100 µM		> 100 µM	> 100 µM		> 100 µM			> 100 µM			
C[C@H](CCc1nc(C#N)c(N)o1)[C@H]1CC[C@H]2[C@@H]3CCC4C[C@@H](O)CC[C@]4(C)[C@H]3C[C@@H](O)[C@]12C (stereo partly drawn)	30 µM	25.1 µM	30.3 µM	31.2 µM	16.2 µM	24 µM	34.2 µM	16.3 µM	25 µM	30.5 µM	31.6 µM		
c1ccc(C2N=C(c3ccccn3)C(c3ccccn3)=NC2c2ccccc2)cc1 (stereo not drawn)		> 100 µM		> 100 µM	> 100 µM	> 100 µM	> 100 µM			> 100 µM			
CC(=O)c1c(-c2ccco2)c(C#N)c(=S)n(C2OC(CO)C(O)C(O)C2O)c1C (stereo not drawn)	> 100 µM		> 100 µM				> 100 µM	> 100 µM	> 100 µM	> 100 µM	> 100 µM		
C#CC(O)/C=C/C(O)CCCC(O)CC#CC(O)C#CCCCCC(O)/C=C/CCCC(=O)CCCCCCCCCCCCCCCC(O)C(O)C#CC(=O)O (stereo not drawn)	> 25 µM	> 25 µM	> 25 µM	> 25 µM	17.1 µM	> 25 µM	> 25 µM	> 25 µM	> 25 µM	> 25 µM	> 25 µM		
COc1ccc(N=C(C)C(C)=Nc2ccc(OC)cc2)cc1	> 100 µM	> 100 µM	> 100 µM	82.6 µM	> 100 µM	> 100 µM	> 100 µM	> 100 µM	> 100 µM	> 100 µM	> 100 µM		
CC(Cl)(CCC(Cl)C(C)(C)Cl)C(=O)CBr (stereo not drawn)	30.6 µM	33.7 µM	50.7 µM	30.9 µM	3.94 µM	20.7 µM	21.8 µM	28.2 µM	74.2 µM	55.4 µM	58.1 µM		
COC(=O)c1c(CC(=O)OC(C)C)cc2n(c1=O)Cc1c-2nc2ccccc2c1OC		> 100 µM		> 100 µM	> 100 µM	> 100 µM	> 100 µM			> 100 µM			
O=C1OC2(CCCCC2)C(Oc2ccc(Cl)cc2)=C1F	> 100 µM		> 100 µM	57 µM	95.9 µM	> 100 µM	> 100 µM	> 100 µM		> 100 µM	> 100 µM		
COC(=O)CCCc1nc2ccccc2nc1N=Nc1ccccc1	> 100 µM	> 100 µM	> 100 µM	> 100 µM	68.5 µM	> 100 µM	76.7 µM	> 100 µM	57.1 µM	> 100 µM			
Cc1ccc(N=Nc2c(O)ccc3ccccc23)c(C)c1	> 100 µM	> 100 µM	> 100 µM			> 100 µM	> 100 µM	> 100 µM	> 100 µM	> 100 µM	> 100 µM		
Cc1cc(NS(=O)(=O)c2ccc(Nc3c4ccccc4nc4c(C(=O)NC(CO)(CO)CO)cccc34)cc2)no1	> 100 µM		> 100 µM	55.7 µM	34.4 µM	> 100 µM	> 100 µM	> 100 µM	> 100 µM	> 100 µM	52.7 µM		
Cc1noc(-c2ccc(C(=O)O)[nH]2)c1Br	> 100 µM		71.4 µM	> 100 µM	> 100 µM	91.9 µM	> 100 µM	> 100 µM	> 100 µM	> 100 µM	> 100 µM		
Cc1oc(N)c(S(=O)(=O)/C(C#N)=C/c2ccccc2[N+](=O)[O-])c1C	> 100 µM	> 100 µM	66.8 µM	> 100 µM	41 µM	92.6 µM	41.4 µM	99 µM	> 100 µM	> 100 µM			
Cc1cc2ccccc2n2c1nc1ccc(O)cc12	> 10 µM		> 10 µM	> 10 µM	> 10 µM	> 10 µM	> 10 µM	> 10 µM	> 10 µM	> 10 µM	> 10 µM		
NCCCNCCSP(=O)(O)O		> 750 µM		> 750 µM	738 µM				> 750 µM	> 750 µM			
CSCSCC(CO)NC(=O)/C=C\c1c(C)[nH]c(=O)[nH]c1=O (stereo not drawn)		309 µM		52.9 µM	8.48 µM				296 µM	209 µM		49.8 µM	62.1 µM
CC(C)(C)N=C1C(=O)C2(C)CCC1C2(C)C (stereo not drawn)	> 100 µM	> 100 µM	> 100 µM	> 100 µM		> 100 µM	> 100 µM	> 100 µM	> 100 µM	> 100 µM			
C=CCCCN(C(=O)c1ccccc1)c1ccc(C(=O)OC)o1		> 100 µM	> 100 µM		> 100 µM	> 100 µM	> 100 µM	> 100 µM	> 100 µM	> 100 µM	> 100 µM		
CCOC(=O)C1=C(N2CCCC2)C(=O)C(C(=O)OCC)C1 (stereo not drawn)	> 100 µM	> 100 µM	> 100 µM	> 100 µM	> 100 µM	> 100 µM	> 100 µM	> 100 µM	> 100 µM	> 100 µM			
CC(C)(C1=NC(C(C)(C)C)CO1)C1=N[C@@H](C(C)(C)C)CO1 (stereo partly drawn)		> 100 µM		> 100 µM	> 100 µM	> 100 µM	> 100 µM			> 100 µM			
